Data reported in the supplement of paper PMC10307832.

What was measured:
Experiment in all cases: relative viability (nuclei count vs DMSO), 5 days (fraction); higher = more cells survive
VE-821 + Pictilisib = compound: CS(=O)(=O)c1ccc(-c2cnc(N)c(C(=O)Nc3ccccc3)n2)cc1 [VE-821] + CS(=O)(=O)N1CCN(Cc2cc3nc(-c4cccc5[nH]ncc45)nc(N4CCOCC4)c3s2)CC1 [Pictilisib] (partner 1 µM)
How it was run: (§1)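 Relative viability equals treated-well nuclei counts divided by vehicle-well nuclei counts. Counts came from 4× images of lung cancer cell lines grown in 1536-well plates for 5 days after pin-tool dosing on the day after seeding. Dosing used one drug alone or a fixed anchor-drug dose plus five library-drug doses (not always all listed) in √10 steps, and values are medians of duplicate plates.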

Vismodegib + Phenformin = compound: CS(=O)(=O)c1ccc(C(=O)Nc2ccc(Cl)c(-c3ccccn3)c2)c(Cl)c1 [Vismodegib] + N=C(N)NC(=N)NCCc1ccccc1 [Phenformin] (partner 250 µM)
How it was run: as §1

Vismodegib + Olaparib = compound: CS(=O)(=O)c1ccc(C(=O)Nc2ccc(Cl)c(-c3ccccn3)c2)c(Cl)c1 [Vismodegib] + O=C(c1cc(Cc2n[nH]c(=O)c3ccccc23)ccc1F)N1CCN(C(=O)C2CC2)CC1 [Olaparib] (partner 8 µM)
How it was run: as §1

Ruxolitinib + Crizotinib = compound: N#CC[C@H](C1CCCC1)n1cc(-c2ncnc3[nH]ccc23)cn1 [Ruxolitinib] + C[C@@H](Oc1cc(-c2cnn(C3CCNCC3)c2)cnc1N)c1c(Cl)ccc(F)c1Cl [Crizotinib] (partner 1 µM)
How it was run: as §1

Cell Line	relative viability (VE-821 + Pictilisib; first compound 0.08 µM)	relative viability (VE-821 + Pictilisib; first compound 0.253 µM)	relative viability (VE-821 + Pictilisib; first compound 0.8 µM)	relative viability (VE-821 + Pictilisib; first compound 2.53 µM)	relative viability (VE-821 + Pictilisib; first compound 8 µM)	relative viability (Vismodegib + Phenformin; first compound 0.08 µM)	relative viability (Vismodegib + Phenformin; first compound 0.253 µM)	relative viability (Vismodegib + Phenformin; first compound 0.8 µM)	relative viability (Vismodegib + Phenformin; first compound 2.53 µM)	relative viability (Vismodegib + Phenformin; first compound 8 µM)	relative viability (Vismodegib + Olaparib; first compound 0.08 µM)	relative viability (Vismodegib + Olaparib; first compound 0.253 µM)	relative viability (Vismodegib + Olaparib; first compound 0.8 µM)	relative viability (Vismodegib + Olaparib; first compound 2.53 µM)	relative viability (Vismodegib + Olaparib; first compound 8 µM)	relative viability (Ruxolitinib + Crizotinib; first compound 0.08 µM)	relative viability (Ruxolitinib + Crizotinib; first compound 0.253 µM)	relative viability (Ruxolitinib + Crizotinib; first compound 0.8 µM)	relative viability (Ruxolitinib + Crizotinib; first compound 2.53 µM)	relative viability (Ruxolitinib + Crizotinib; first compound 8 µM)
201T	0.723	0.626	0.65	0.698	0.559	0.45	0.49	0.423	0.45	0.44	0.826	0.875	0.798	0.845	0.822	1.02	1.11	1.19	1.29	1.18
A549	0.616	0.481	0.531	0.468	0.229	0.151	0.148	0.226	0.115	0.155	0.247	0.358	0.31	0.352	0.194	0.782	0.891	0.855	0.692	0.293
A-427	0.763	0.538	0.54	0.684	0.389	0.307	0.385	0.385	0.314	0.283	0.743	0.804	0.642	0.675	0.786	0.843	1.07	0.867	0.66	0.789
ABC-1	0.902	0.684	0.721	0.751	0.466	0.231	0.253	0.241	0.24	0.235	0.76	0.788	0.725	1.01	1.09	1.12	1.02	1.22	0.992	1.26
BEN	0.707	0.55	0.527	0.591	0.542	0.249	0.281	0.292	0.255	0.248	1.14	1.05	0.889	1.08	1.13	0.832	1.01	1.07	0.735	0.95
CAL-12T	0.479	0.394	0.448	0.427	0.314	0.641	0.584	0.578	0.561	0.578	0.81	0.691	0.411	0.757	0.713	0.914	0.586	0.81	0.481	0.576
COR-L23	1.17	0.654	0.961	0.981	0.682	0.441	0.423	0.43	0.453	0.493	0.35	0.339	0.337	0.281	0.317	0.717	0.681	0.733	0.7	0.433
COR-L 105	0.46	0.392	0.402	0.405	0.38	0.498	0.441	0.516	0.506	0.495	0.605	0.64	0.69	0.698	0.537	0.789	0.634	0.853	0.444	0.625
Calu-6	1.1	0.973	0.918	0.778	0.523						0.589	0.558	0.562	0.434	0.587	0.797	0.676	1	0.711	0.399
ChaGo-K-1	0.705	0.712	0.927	0.797	0.339	0.523	0.448	0.47	0.459	0.452	0.452	0.436	0.455	0.398	0.405		1.13	1.22	0.963	0.997
EBC-1	0.295	0.353	0.382	0.433	0.312						0.662	0.674	0.751	0.69	0.74	0.191		0.21	0.204	0.202
EKVX	0.509	0.412	0.451	0.411	0.356	0.225	0.227	0.24	0.224	0.233		0.737	0.818	0.778	0.866	0.894	0.983	1.07	0.757	0.798
EMC-BAC-2	0.548	0.528	0.583	0.593	0.552	0.571	0.53	0.5	0.506	0.502	0.523	0.488	0.487	0.472	0.526	0.801	0.782	0.85	0.68	0.445
EPLC-272H	0.427	0.32	0.347	0.399	0.309	0.348	0.313	0.316	0.271	0.264	0.839	0.69	0.674	0.783	0.837	0.925	0.945	1.2	0.729	0.863
H3255	0.583	0.553	0.549	0.454	0.568	0.362	0.378	0.362	0.324	0.413	0.586	0.554	0.516	0.54	0.517		0.752	1.12	0.806	0.849
HARA	0.509	0.294	0.408	0.401	0.477	0.47	0.355	0.537	0.503	0.415	0.786		0.945	0.856	0.943	1.02	1.02	1.08	1.09	0.687
HCC-15	0.947	0.757	0.781	0.92	0.749	0.511	0.458	0.472	0.496	0.441	0.652	0.709	0.718	0.737	0.608	0.774	0.839	0.883	0.794	0.693
HCC-44	1.86	0.468	0.701	0.708	0.79	0.184	0.195	0.179	0.173	0.183	0.945	0.919	0.981	1.01	0.962	0.765	0.839	0.866	0.854	0.527
HCC-78	0.207	0.237	0.229	0.22	0.206	0.664	0.704	0.575	0.615	0.683	0.676	0.79	0.639	0.755	0.844	0.305	0.273	0.308	0.322	0.324

Cell Line	relative viability (VE-821 + Pictilisib; first compound 0.08 µM)	relative viability (VE-821 + Pictilisib; first compound 0.253 µM)	relative viability (VE-821 + Pictilisib; first compound 0.8 µM)	relative viability (VE-821 + Pictilisib; first compound 2.53 µM)	relative viability (VE-821 + Pictilisib; first compound 8 µM)	relative viability (Vismodegib + Phenformin; first compound 0.08 µM)	relative viability (Vismodegib + Phenformin; first compound 0.253 µM)	relative viability (Vismodegib + Phenformin; first compound 0.8 µM)	relative viability (Vismodegib + Phenformin; first compound 2.53 µM)	relative viability (Vismodegib + Phenformin; first compound 8 µM)	relative viability (Vismodegib + Olaparib; first compound 0.08 µM)	relative viability (Vismodegib + Olaparib; first compound 0.253 µM)	relative viability (Vismodegib + Olaparib; first compound 0.8 µM)	relative viability (Vismodegib + Olaparib; first compound 2.53 µM)	relative viability (Vismodegib + Olaparib; first compound 8 µM)	relative viability (Ruxolitinib + Crizotinib; first compound 0.08 µM)	relative viability (Ruxolitinib + Crizotinib; first compound 0.253 µM)	relative viability (Ruxolitinib + Crizotinib; first compound 0.8 µM)	relative viability (Ruxolitinib + Crizotinib; first compound 2.53 µM)	relative viability (Ruxolitinib + Crizotinib; first compound 8 µM)
HCC-366	0.152	0.252	0.0721	0.127	0.101	0.683	0.614	0.631	0.619	0.586	0.343	0.364	0.378	0.431	0.372	0.513	0.551	0.549	0.449	0.257
HCC-827	1.1	1.03	1.19	1.24	1.19	0.39	0.406	0.381	0.384	0.408	0.581	0.653	0.728	0.678	0.657		0.878	0.734	0.856	0.826
HOP-62	0.689	0.785	0.807	0.944	0.516	0.645	0.637	0.665	0.698	0.569	0.403	0.47	0.387	0.396	0.345		1.05	0.707	1.01	0.749
IA-LM	0.412	0.341	0.443	0.749	0.551						0.841	0.853	0.892	0.773	0.941	0.886	1.05	0.791	0.849	0.638
LC-2-ad	0.704	0.392	0.545	0.514	0.373	0.626	0.583	0.561	0.618	0.494	0.681	0.734	0.686	0.658	0.716		0.485	0.49	0.474	0.465
LCLC-97TM1	0.178	0.203	0.229	0.224	0.137	0.443	0.407	0.42	0.452	0.407	0.355	0.416	0.439	0.298	0.565	0.361	0.393	0.487	0.472	0.275
LCLC-103H	0.572	0.51	0.663	0.75	0.494	0.39	0.332	0.328	0.357	0.323	0.759	0.757	0.73	0.733	0.832	1.04	1.15	1.2	1.09	0.988
LK-2	0.709	0.59	0.601	0.595	0.606	0.617	0.619	0.431	0.366	0.373	0.379	0.574	0.956	0.638	0.604		0.224	0.243	0.283	0.239
LOU-NH91	0.527	0.506	0.496	0.524	0.525	0.66	0.68	0.67	0.75	0.681	0.873	0.907	0.936	0.904	0.917	0.626	0.723	0.788	0.707	0.704
NCI-H522						0.643	0.618	0.673	0.657	0.632	0.786	0.591	0.612	0.567	0.565					
NCI-H1299	0.769	0.606	0.689	0.771	0.357						0.913	0.964	0.967	0.935	0.951	0.981	0.909	0.973	0.839	0.704
NCI-H1395	0.568	0.67	0.652	0.605	0.599	0.345	0.397	0.411	0.439	0.485	0.467	0.553	0.494	0.468	0.491					
NCI-H1563	0.581	0.613	0.648	0.663	0.731	0.622	0.623	0.676	0.721	0.626						0.865	0.84	0.931	0.704	0.838
NCI-H1623						0.553	0.577	0.661	0.536	0.578										
NCI-H1648											0.781	0.767	0.46	0.645	0.872					
NCI-H1703	0.241	0.233	0.25	0.227	0.192						0.495	0.42	0.543	0.349	0.44	0.643	0.611	0.832	0.497	0.241
NCI-H1793	0.356	0.312	0.273	0.431	0.425		0.36	0.358	0.365	0.375		0.907	1.11	0.917	0.884					
NCI-H2342						0.632	0.612	0.581	0.475	0.529	0.402	0.421	0.418	0.52	0.406					
SW 900						0.615	0.612	0.718	0.744	0.676	0.743	0.866	0.784		0.803					
